“And” between values parts separate entries of the source, which are not always exact repeats. Equal values may be shown once.
Columns and labels:
[1] = Metabolic stability in human liver microsomes; assay type: in vitro ADME
Description: (§1) Metabolic stability in mouse, rat and human liver microsomes: Metabolic stability was defined as the percentage of parent compound lost over time in the presence of a metabolically active test system.
(§2) The incubation mixtures consisted of liver microsomes 1.0 mg microsomal protein /mL , compound 1 uM or positive control verapamil, 1 uM . The reactions were initiated by adding 1 mM NADPH.
(§3) Reactions without NADPH at 0 and 60 min were also incubated to rule out non-NADPH metabolism or chemical instability in the incubation buffer. All reactions were terminated using 200 uL of ice-cold acetonitrile containing internal standard 200 ng/mL of telmisartan at 0, 5, 15, 30 and 60 min. The vials were centrifuged at 4000 rpm for 20 min. The supernatants thus obtained were analyzed on LC-MS/MS to monitor the disappearance of compound. […]

[2] = Metabolic stability in rat liver microsomes; assay type: in vitro ADME; details: for Rat liver microsomal stability % QH (hepatic extraction ratio): rat liver microsomes; for Clearance in animal microsomes: animal microsomal data among rat, dog and monkey
Description: as §1, §2, §3

[3] = biological target: T1, indolamine-2, 3-dioxygenase one (IDO1) (Homo sapiens, UniProt P14902); test: Inhibition kinetics (Lineweaver-Burk plots); assay type: biochemical; details: L-tryptophan 1–4 mM, inhibitor 0–1.5 µM; with respect to L-tryptophan
T1 construct: purchased Biovision P1096
Description: The IDO1 activity assay was performed to measure the formation of […] by absorbance plate reader at 492 nm. The mode of inhibition of the screened compounds was determined from the Lineweaver-Burk plots, which are the double reciprocal plots of enzyme reaction velocities (1/V) vs. substrate concentrations (1/[S]), where V and [S] represent the initial rate of enzymatic reaction and L-tryptophan concentration respectively.

T1 sequence (P14902 whole entry): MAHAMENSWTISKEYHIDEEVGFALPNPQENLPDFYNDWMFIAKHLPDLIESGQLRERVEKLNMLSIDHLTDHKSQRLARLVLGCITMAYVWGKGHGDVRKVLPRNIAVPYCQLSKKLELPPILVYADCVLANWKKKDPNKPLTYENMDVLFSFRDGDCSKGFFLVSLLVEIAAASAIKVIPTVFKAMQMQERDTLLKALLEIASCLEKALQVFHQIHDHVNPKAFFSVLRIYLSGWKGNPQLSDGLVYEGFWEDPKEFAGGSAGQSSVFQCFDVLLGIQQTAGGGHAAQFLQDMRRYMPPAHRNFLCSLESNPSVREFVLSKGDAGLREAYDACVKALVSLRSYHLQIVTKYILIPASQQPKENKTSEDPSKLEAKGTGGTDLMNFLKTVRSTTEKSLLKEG

Human liver microsomal % QH (hepatic extraction ratio) [1]	Metabolic stability in liver microsomes [1]	Rat liver microsomal stability % QH (hepatic extraction ratio) [2]	Mode of inhibition of IDO1 [3]	Clearance in animal microsomes [2]	Structure (SMILES)
73.9%	unstable	12.6%	–	–	CC(=O)NCCc1c(C(=O)c2cc(C(F)(F)F)cc(C(F)(F)F)c2)[nH]c2ccccc12 [8a]
33% and 32.6%	moderately stable	2.2%	competitive	low to moderate clearance	CC(=O)NCCc1c(C(=O)c2ccc([N+](=O)[O-])cc2)[nH]c2ccccc12 [8d]
58%	moderately stable	14.9%	–	low to moderate clearance	COC(=O)NCCc1c(C(=O)c2ccccc2)[nH]c2ccccc12 [8e]
